Assay results from publication PMC4972190, “In vitro activity of salinomycin and monensin derivatives against Trypanosoma brucei” (Parasites & Vectors, 2016).
Converted amounts (≈) assume the structure as drawn. Read-outs that look alike come from different tables or passages of the source.

Key:
[1] = system: Bloodstream forms of T. brucei (clone 427-221a); assay: Toxicity assay (resazurin, 72 h) on bloodstream forms of T. brucei; format: cell-based, Trypanosoma brucei; settings: for Selectivity GI50 ratio: GI50(HL-60)/GI50(T. brucei); for Selectivity MIC ratio: MIC(HL-60)/MIC(T. brucei); for GI50 / MIC: 72 h; for MIC: concentration at which all cells were killed, determined microscopically, mean of three experiments
Method: (§1) Bloodstream forms of T. brucei (clone 427-221a) and human myeloid leukaemia HL-60 cells were grown in Baltz medium and RPMI medium, respectively. Both culture media were supplemented with 16.7 % (v/v) heat-inactivated foetal calf serum. All cultures were maintained in a humidified atmosphere containing 5 % CO2 at 37 °C.
(§2) Cells were seeded in 96-well plates in a final volume of 200 μl of their respective culture medium containing 10-fold serial dilutions of ionophore derivatives (10^-4 to 10^-10 M) and 1 % DMSO. Wells containing medium and 1 % DMSO served as controls. The initial cell densities were 1 × 10^4/ml for T. brucei and 1 × 10^5/ml for HL-60 cells. After 24 h incubation at 37 °C in a humidified atmosphere containing 5 % CO2, 20 μl of a 0.44 mM resazurin solution prepared in PBS was added and the cells were incubated for a further 48 h so that the total incubation time was 72 h. Thereafter, the plates were read on a microplate reader using a test wavelength of 570 nm and a reference wavelength of 630 nm. The 50 % growth inhibition (GI50) value, i.e. the concentration of a compound necessary to reduce the growth rate of cells by 50 % compared to the control was determined by linear interpolation according to the method described in [22]. The minimum inhibitory concentration (MIC) values, i.e. the concentration of the drug at which all trypanosome and human cells were killed, was determined microscopically. Each compound was independently tested three times.

[2] = system: human myeloid leukaemia HL-60 cells; assay: Toxicity assay (resazurin, 72 h) on HL-60 cells; format: cell-based; settings: for MIC: determined microscopically, mean of three experiments; for GI50: Homo sapiens
Method: as §1, §2

[3] = system: bloodstream forms of T. brucei; assay: Measurement of changes in cell volume by light scattering; format: cell-based, Trypanosoma brucei; settings: 100 μM; 5 × 10^7 cells/ml; measured every 15 min; decrease in absorbance = increase in cell volume
Method: Change in cell volume was determined by light scattering as previously described. In brief, bloodstream forms of T. brucei were seeded at a density of 5 × 10^7 cells/ml in 96-well plates in a final volume of 200 μl culture medium containing 100 μM of salinomycin or the salonimycin derivatives SAL-E7 or SAL-AM2 and 1 % DMSO. Absorbance of the cultures was measured at 490 nm every 15 min. A decrease in absorbance corresponded to an increase in cell volume. The experiment was repeated three times.
Change in cell volume can be measured by light scattering at 450–550 nm whereby a decrease in absorbance indicates swelling of cells. In order to be able to record measurable absorbance changes, a high cell density is required. […] However, the derivatives caused a slightly faster swelling of the cells than salinomyicn. […] During further incubation, trypanosomes increased their cell volume but cell swelling was much slower and much less. […] However, it seems that the transport efficiency determines the trypanocidal potency of salinomycin derivatives.
Fig. 3 Effect of salinomycin derivatives on the cell volume of bloodstream forms of T. brucei. […] Every 15 min, the absorbance at 490 nm was measured. […] Note that a decrease in absorbance corresponds to an increase in cell volume

[4] = Trypanosoma brucei, T. brucei bloodstream forms

Row | SMILES | Selectivity GI50 ratio [1] | Selectivity MIC ratio [1] | GI50 ([1]; Trypanosoma brucei) [µM] | MIC [1, 4] [µM] | MIC ([2]; HL-60 cells, 72 h) [µM] | GI50 ([2]; HL-60, 72 h) [µM] | MIC ([1]; Trypanosoma brucei, T. brucei bloodstream forms, read-out: MIC) [µM] | GI50 ([1]; Trypanosoma brucei, T. brucei bloodstream forms, resazurin, mean ± SD of three experiments, read-out: GI50) [µM] | GI50 ([2]; HL-60 cells, 72 h, resazurin, mean ± SD of three experiments, read-out: GI50) [µM] | MIC ([1]; T. brucei bloodstream forms) [µM] | MIC ([1]; T. brucei bloodstream forms, listed as salinomycin n-butyl amide) | MIC ([1]; T. brucei bloodstream forms, read-out: MIC) [µM] | Effect on cell volume (absorbance at 490 nm) [3]
1 | CCC1(C2OC(C3OC(O)(CO)C(C)CC3C)CC2C)CCC(C2(C)CCC3(CC(O)C(C)C(C(C)C(OC)C(C)C(=O)OC)O3)O2)O1 (centres unmarked) [MON-E1] | 11.1 | 10 | 3.06 ± 0.06 | 10 (≈ 6.85 µg/mL) | 100 (≈ 68.5 µg/mL) | 34.1 ± 2.2 |  |  |  |  |  |  | 
2 | CCC1(C2OC(C3OC(O)(CO)C(C)CC3C)CC2C)CCC(C2(C)CCC3(CC(O)C(C)C(C(C)C(OC)C(C)C(=O)OCCO)O3)O2)O1 (centres unmarked) [MON-E2] | 9.2 | 10 | 2.76 ± 0.1 | 10 (≈ 7.15 µg/mL) | 100 (≈ 71.5 µg/mL) | 25.3 ± 5 |  |  |  |  |  |  | 
3 | CCC1(C2OC(C3OC(O)(CO)C(C)CC3C)CC2C)CCC(C2(C)CCC3(CC(O)C(C)C(C(C)C(OC)C(C)C(=O)OCCOCCOC)O3)O2)O1 (centres unmarked) [MON-E3] | 12.1 | 10 | 1.68 ± 0.56 | 10 (≈ 7.73 µg/mL) | 100 (≈ 77.3 µg/mL) | 20.3 ± 3.1 |  |  |  |  |  |  | 
4 | C=CCNC(=O)OCC1(O)OC(C2CC(C)C(C3(CC)CCC(C4(C)CCC5(CC(O)C(C)C(C(C)C(OC)C(C)C(=O)O)O5)O4)O3)O2)C(C)CC1C (centres unmarked) [MON-UR1] | 75 | 100 | 0.31 ± 0.06 | 1 (≈ 0.754 µg/mL) | 100 (≈ 75.4 µg/mL) | 23.3 ± 6.6 |  |  |  |  |  |  | 
5 | CC[C@@]1([C@@H]2O[C@@H]([C@H]3O[C@@](O)(CO)[C@H](C)C[C@@H]3C)C[C@@H]2C)CC[C@H]([C@]2(C)CC[C@]3(C[C@H](O)[C@@H](C)[C@@H]([C@@H](C)[C@@H](OC)[C@H](C)C(=O)O)O3)O2)O1 [Monensin, monensin] | 51 | 100 |  |  | 10 (≈ 6.71 µg/mL) |  | 0.1 (≈ 0.0671 µg/mL) | 0.029 ± 0.002 | 1.48 ± 0.56 |  |  |  | 
6 | C=CCNC(=O)C(CC)C1CCC(C)C(C(C)C(O)C(C)C(=O)C(CC)C2OC3(C=CC(O)C4(CCC(C)(C5CCC(O)(CC)C(C)O5)O4)O3)C(C)CC2C)O1 (centres unmarked) [SAL-AM1] | 12.0 | 10 | 3.23 ± 0.21 | 10 (≈ 7.9 µg/mL) | 100 (≈ 79 µg/mL) | 38.9 ± 3.2 |  |  |  |  |  |  | 
7 | CCCCNC(=O)C(CC)C1CCC(C)C(C(C)C(O)C(C)C(=O)C(CC)C2OC3(C=CC(O)C4(CCC(C)(C5CCC(O)(CC)C(C)O5)O4)O3)C(C)CC2C)O1 (centres unmarked) [SAL-AM2, salinomycin n-butyl amide] | greater than 250 |  | 0.04 ± 0.007 |  | 100 (≈ 80.6 µg/mL) | 14.5 ± 1.3 |  |  |  | 0.1 to 1 | below 1 μM | 0.1 (≈ 0.0806 µg/mL) | cell swelling similar to parasites treated with salinomycin
8 | CCC(C(=O)NCc1ccccc1)C1CCC(C)C(C(C)C(O)C(C)C(=O)C(CC)C2OC3(C=CC(O)C4(CCC(C)(C5CCC(O)(CC)C(C)O5)O4)O3)C(C)CC2C)O1 (centres unmarked) [SAL-AM3] | 2.7 | 10 | 2.94 ± 0.2 | 10 (≈ 8.4 µg/mL) | 100 (≈ 84 µg/mL) | 7.92 ± 1.95 |  |  |  |  |  |  | 
